Assay results published in US10993983B2, “Cyclic peptide epitopes and small-molecule mimics for inducing autophagy” (TRUSTEES OF TUFTS COLLEGE, priority 2016, dated 2021).
Marks after values point to notes of the source that are not given here. Bridges are numbered along the chain shown (N, C = ends). Where no end group is shown, it is not given here. [ ]: non-standard residue; d: D form. MP = not defined here

Experiments:
[1] = tested on: p62; assay: p62 degradation assay (p62/actin immunoblot);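 on Activity (μM) 10, p62/actin assay activity: HeLa cells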;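 on Activity (μM) 100, p62/actin assay activity: HeLa cells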;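 on Activity (μM) 20, p62/actin assay activity: HeLa cells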;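 on Activity (μM) 30, p62/actin assay activity: HeLa cells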;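 on Activity (μM) 50, p62/actin assay activity: HeLa cells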; assay type: cell-based; parameters: key: −: activity not reported; 0: decreased vs. WT; +: similar to WT; ++: modest increase vs. WT; +++: significant increase vs. WT; conditions: for Activity (μM) 30, p62/actin assay activity: 30 μM; for Activity (μM) 50, p62/actin assay activity: 50 μM; for Activity (μM) 100, p62/actin assay activity: 100 μM; for Activity (μM) 10, p62/actin assay activity: 10 μM; for Activity (μM) 10, starred cell, p62/actin assay activity: Table 8, 10 μM marked * (footnote: data taken at 20 instead of 30 μM); for Activity (μM) 20, p62/actin assay activity: 20 μM
Description: (§1) Cells were treated with peptide in OPTI-MEM (Thermo Scientific) acidified with 0.15% (v/v) 6N HCl for 3 hour. Cells were rinsed with Dulbecco's phosphate buffered saline (PBS) and lysed in lysis buffer (20 mM HEPES, 150 mM NaCl, 1 mM EDTA, 1% Triton X-100, protease inhibitor cocktail (Roche) on ice for 1 hour. Cell lysates were centrifuged at 16,000 g for 10 min at 4° C. and analyzed by SDS-PAGE and transferred to PVDF membranes. The membranes were blocked 5% non-fat dry milk (NFDM) in PBST (PBS+0.05% Tween-20) for 1 hour, then incubated overnight at 4° C. with primary antibody in 5% NFDM in PBST. The blots were washed with PBST and incubated with HRP-conjugated secondary antibodies diluted in 5% NFDM in PBST for 1 hour at room temperature. Membranes were washed with PBST and visualized with SuperSignal West Pico Chemiluminescent Substrate (Thermo Scientific). Semi-quantitative results were obtained by noting the lowest concentration at which both p62 degradation and LC3-I to LC3-II conversion were observed.
(§2) Compounds 1-10 were evaluated using the assays described in Examples 4 and 5. Activity for each compound was measured in the p62 degradation assay and the LC3 marker assay as described herein. The activity at each concentration of peptide is given as, for example, (0/+) where 0 would be the p62/actin assay activity and + would be the LC3 assay activity.

[2] = tested on: LC3; assay: LC3 marker assay (LC3-I to LC3-II conversion immunoblot);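 on Activity (μM) 10, LC3 assay activity: HeLa cells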;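 on Activity (μM) 100, LC3 assay activity: HeLa cells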;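 on Activity (μM) 20, LC3 assay activity: HeLa cells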;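 on Activity (μM) 30, LC3 assay activity: HeLa cells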;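 on Activity (μM) 50, LC3 assay activity: HeLa cells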; assay type: cell-based; parameters: key: −: activity not reported; 0: decreased vs. WT; +: similar to WT; ++: modest increase vs. WT; +++: significant increase vs. WT; conditions: for Activity (μM) 30, LC3 assay activity: 30 μM; for Activity (μM) 50, LC3 assay activity: 50 μM; for Activity (μM) 100, LC3 assay activity: 100 μM; for Activity (μM) 10, LC3 assay activity: 10 μM; for Activity (μM) 10, starred cell, LC3 assay activity: Table 8, 10 μM marked * (footnote: data taken at 20 instead of 30 μM); for Activity (μM) 20, LC3 assay activity: 20 μM
Description: as §1, §2

[3] = Table 7, control compound T25, first symbol
[4] = Table 7, control compound T25, second symbol
[5] = Table 6, control DMSO, first symbol
[6] = Table 6, control DMSO, second symbol
[7] = Table 8, control compound T25, first symbol
[8] = Table 8, control compound T25, second symbol
[9] = Table 3, control vehicle, first symbol of cell
[10] = Table 3, control vehicle, first symbol
[11] = Table 3, control vehicle, second symbol of cell
[12] = Table 3, control vehicle, second symbol

Row | Sequence | Activity (μM) 10, p62/actin assay activity [1, 5] | Activity (μM) 30, p62/actin assay activity [1, 5] | Activity (μM) 50, p62/actin assay activity [1, 5] | Activity (μM) 100, p62/actin assay activity [1, 5] | Activity (μM) 10, LC3 assay activity [2, 6] | Activity (μM) 30, LC3 assay activity [2, 6] | Activity (μM) 50, LC3 assay activity [2, 6] | Activity (μM) 100, LC3 assay activity [2, 6] | Activity (μM) 30, p62/actin assay activity [1, 7] | Activity (μM) 50, p62/actin assay activity [1, 7] | Activity (μM) 30, LC3 assay activity [2, 8] | Activity (μM) 50, LC3 assay activity [2, 8] | also measured
1 | VCNATCHIWH [Compound 31] |  |  |  |  |  |  |  |  |  |  |  |  | Activity (μM) 30, p62/actin assay activity [1, 3]: 0/0; Activity (μM) 50, p62/actin assay activity [1, 3]: 0/0; Activity (μM) 100, p62/actin assay activity [1, 3]: 0/0; Activity (μM) 30, LC3 assay activity [2, 4]: 0/0; Activity (μM) 50, LC3 assay activity [2, 4]: 0/0; Activity (μM) 100, LC3 assay activity [2, 4]: 0/0
2 | VCNATCHIWH [Compound 22] | +++ | +++ | +++ | +++ | + | + | ++ | + |  |  |  |  | 
3 | VCNACFHIWH [Compound 72] |  |  |  |  |  |  |  |  | 0/0 | + | 0/0 | ++ | Activity (μM) 10, starred cell, p62/actin assay activity ([1]; first symbol): 0/0*; Activity (μM) 10, starred cell, LC3 assay activity ([2]; second symbol): 0/0*
4 | VWNATFHIWHD (not fully specified (N-terminus, C-terminus)) [Compound 6, likely pa-11mer] |  |  |  |  |  |  |  |  | 0/0 | ++ | 0/0 | 0 | Activity (μM) 10, p62/actin assay activity [1, 9]: 0/0; Activity (μM) 20, p62/actin assay activity [1, 10]: 0/0; Activity (μM) 50, p62/actin assay activity [1, 10]: 0/0; Activity (μM) 100, p62/actin assay activity [1, 10]: 0/0; Activity (μM) 100, p62/actin assay activity [1, 7]: 0/0; Activity (μM) 10, starred cell, p62/actin assay activity ([1]; first symbol): 0/0*; Activity (μM) 10, LC3 assay activity [2, 11]: 0/0; Activity (μM) 20, LC3 assay activity [2, 12]: 0/0; Activity (μM) 50, LC3 assay activity [2, 12]: 0/0; Activity (μM) 100, LC3 assay activity [2, 12]: 0/0; Activity (μM) 100, LC3 assay activity [2, 8]: 0/0; Activity (μM) 10, starred cell, LC3 assay activity ([2]; second symbol): 0/0*
5 | VCNATCHIWH [Compound 29] |  |  |  |  |  |  |  |  |  |  |  |  | Activity (μM) 30, p62/actin assay activity [1, 3]: 0/0; Activity (μM) 50, p62/actin assay activity [1, 3]: +; Activity (μM) 100, p62/actin assay activity [1, 3]: ++; Activity (μM) 30, LC3 assay activity [2, 4]: 0/0; Activity (μM) 50, LC3 assay activity [2, 4]: 0; Activity (μM) 100, LC3 assay activity [2, 4]: 0
6 | VCNACFHIWH [Compound 9] |  |  |  |  |  |  |  |  |  |  |  |  | Activity (μM) 10, p62/actin assay activity [1, 9]: 0/0; Activity (μM) 20, p62/actin assay activity [1, 10]: 0/0; Activity (μM) 50, p62/actin assay activity [1, 10]: 0/0; Activity (μM) 10, LC3 assay activity [2, 11]: 0/0; Activity (μM) 20, LC3 assay activity [2, 12]: 0/0; Activity (μM) 50, LC3 assay activity [2, 12]: 0/0
7 | VCNATCHIWH [Compound 21] | ++ | +++ | +++ | +++ | 0 | 0 | 0 | 0 |  |  |  |  | 
8 | VCNATCHIWH [Compound 18] | 0/0 | 0/0 | 0/0 | 0/0 | 0/0 | 0/0 | 0/0 | 0/0 |  |  |  |  | 
9 | VCNACFHIWH [Compound 55] |  |  |  |  |  |  |  |  | ++ | +++ | 0 | 0 | Activity (μM) 10, p62/actin assay activity [1, 7]: 0/0; Activity (μM) 10, LC3 assay activity [2, 8]: 0/0
10 | VCNATCHIRIWH (H-V[dC]NAT[dC]HIRIWH; linker 2-6 via MP (inferred); not fully specified (C-terminus); reading uncertain) [Compound 37] |  |  |  |  |  |  |  |  |  | 0/0 |  | 0/0 | Activity (μM) 100, p62/actin assay activity [1, 7]: 0/0; Activity (μM) 100, LC3 assay activity [2, 8]: 0/0
